{"source": "patent US20050112079A1", "about": "“Depilatories and agents for external use” (KAO CORPORATION, priority 1999, published 2005)", "key": {"regrowth of dorsal hair": {"test_system": "regrowth of dorsal hair", "test": "Hair growth test in mice, application to depilated skin", "format": "in vivo, C3H/HeNCrj mouse", "details": "mouse, 0.5 mg in 2.5 mL PEG 400/PEG 3350 (95/5), 25 μL/application once a day over 2 weeks; regrown hair area/depilated area×100", "protocol": "Endothelin-1 (0.5 mg) was dissolved in a mixed solution (2.5 mL) of polyethylene glycol 400 (average molecular weight: 400) and polyethylene glycol 3350 (average molecular weight: 3,350) (mixing ratio: 95/5) to prepare a hair growth inhibitor. Dorsal hair of each 8-week old C3H/HeNCrj mouse was removed with a depilatory cream (over an area of 2×4 cm^2), and the hair growth inhibitor was applied to the depilated site once a day at a dose of 25 μL/application over 2 weeks. A group in which only the solvent was similarly applied was employed as a control group. To observe regrowth of hair, the above-described depilated site on day 14 after the depilation was photographed at a predetermined fixed magnification, and the percentage of a regrown hair area (regrown hair area/depilated area×100) was determined using an image analyzer."}, "[1]": {"test_system": "hair follicle organs in growth phase isolated from human scalp tissue", "test": "Growth inhibitory effects on organ-cultured hair follicles", "format": "cell-based", "protocol": "From a human scalp tissue, hair follicle organs in growth phase were surgically isolated under a stereomicroscope. Following a conventional procedure [Philpott M. P., et al., J. Cell Sci., 97, 463-471 (1990)], the isolated hair follicles were subjected to organ culture. Described specifically, endothelin-1 was added to William's E medium which contained L-glutamine (2 mM), hydrocortisone (10 ng/mL), insulin (10 μg/mL), sodium selenite (10 ng/mL) and transferrin (10 μg/mL)."}, "[2]": {"test_system": "hair at the dorsal part of a guinea pig", "test": "Depilation inducing effects of endothelin, intracutaneous administration", "format": "in vivo", "details": "0.3 μg intracutaneous (50 μL/site), 10 days after the administration", "protocol": "(§1) A solution of endothelin-1 (0.3 μg) in phosphate buffer solution (PBS), which contained 0.1% of bovine serum albumin (BSA), was intracutaneously administered (at 50 μL/site) to the dorsal part of a guinea pig."}, "[3]": {"test_system": "growth-phase hair follicles", "test": "Growth-phase hair follicle inhibitory effects, number of hair shafts grown per unit area", "format": "in vivo", "details": "guinea pig dorsal, 1 μg intracutaneous, fifth day after the administration (FIG. 1)", "protocol": "Solutions (1 μg, each) of endothelin-1, endothelin-2 and endotherin-3 in aliquots of phosphate buffer solution (PBS), which contained 0.1% of bovine serum albumin (BSA), were intracutaneously administered (at 50 μL/site) to the dorsal parts of guinea pigs, respectively, from which hair had been cut off by a hair clipper. Three days after the administration, hair was again cut off by a hair clipper from the administered sites. Two days after the cutting, the numbers of hair shafts grown per unit area at the administered sites were counted."}, "[4]": {"test_system": "growth-phase hair follicle", "test": "Structural changes of hair follicle structure, hematoxylin-eosin stained dorsal skin", "format": "in vivo", "details": "guinea pig, 0.3 μg intracutaneous", "protocol": "as §1, with “[…]” for “0.1%”, “pig. After that, samples were collected day after day from the administered dorsal skin, and tissue samples were prepared by hematoxylin-eosin staining.” for “pig.”"}}, "note": "Where no end group is shown, it is not given here."}
{"compound": "CC[C@H](C)[C@H](NC(=O)[C@H](CC(=O)O)NC(=O)[C@H](CC(C)C)NC(=O)[C@H](Cc1c[nH]cn1)NC(=O)[C@@H]1CSSC[C@H](N)C(=O)N[C@@H](CO)C(=O)N[C@H]2CSSC[C@H](NC(=O)[C@H](CCC(=O)O)NC(=O)[C@H](CCCCN)NC(=O)[C@H](CC(=O)O)NC(=O)[C@H](CCSC)NC(=O)[C@H](CC(C)C)NC(=O)[C@H](CO)NC(=O)[C@H](CO)NC2=O)C(=O)N[C@@H](C(C)C)C(=O)N[C@@H](Cc2ccc(O)cc2)C(=O)N[C@@H](Cc2ccccc2)C(=O)N1)C(=O)N[C@H](C(=O)N[C@@H](Cc1c[nH]c2ccccc12)C(=O)O)[C@@H](C)CC", "note": "[Endothelin-1, endothelin-1]", "values": [{"measurement": "Percentage of regrown hair area on day 14 after depilation", "setting": "regrowth of dorsal hair", "value": 2.22, "unit": "Percentage"}, {"measurement": "Grown hair follicle length versus control group", "setting": "[1]; day 4 of incubation and the subsequent days (FIG. 3)", "value": "significant hair growth inhibitory effects"}, {"measurement": "Structural change of incubated hair follicles", "setting": "[1]; during the incubation period (FIG. 4)", "value": "structural change of the endothelin-treated, growth-phase hair follicles into those similar to resting-phase hair follicles"}, {"measurement": "Depilation at the administered site", "setting": "[2]", "value": "hair shaft falling-off and formation of a marked depilation spot"}, {"measurement": "Number of hair shafts grown per unit area at the administered site", "setting": "[3]", "value": "significant (p<0.01) decrease in the number of hair shafts"}, {"measurement": "Hair follicle histology", "setting": "[4]; 1st day after the administration (FIG. 2)", "value": "regressed image of a growth-phase hair follicle"}, {"measurement": "Hair follicle histology", "setting": "[4]; 3rd day after the administration (FIG. 2)", "value": "image of a follicular tissue in transition phase"}]}
{"compound": "endothelin-2 (CSCSSWLDKECVYFCHLDIIW; ends and bridges not checked; cysteine pairing not given here; UniProt P20800 49-69, looked up) [isoform of endothelin, a peptide composed of 21 amino acid residues]", "values": [{"measurement": "Number of hair shafts grown per unit area at the administered site", "setting": "[3]", "value": "significant (p<0.01) decrease in the number of hair shafts"}]}
{"compound": "endothelin-3 (CTCFTYKDKECVYYCHLDIIW; ends and bridges not checked; cysteine pairing not given here; UniProt P14138 97-117, looked up) [endotherin-3, isoform of endothelin, a peptide composed of 21 amino acid residues]", "values": [{"measurement": "Number of hair shafts grown per unit area at the administered site", "setting": "[3]", "value": "significant (p<0.01) decrease in the number of hair shafts"}]}
